The subject of one data set is endogenous TFEB. In words: TFEB nuclear translocation, immunocytochemistry high-content imaging. In kind it is cell-based.
Data set [1] relates to SH-SY5Y cells. Briefly: AK (adenylate kinase) release ToxiLight cytotoxicity assay. Also: reference of the scale not given here.
Data set [2] concerns SH-SY5Y cells. Briefly: Nuclear count from microscopy images (cellular growth and toxicity). Also: reference of the scale not given here.
Data set [3] deals with SH-SY5Y cells.
Excerpt: The PKIS2 Library was supplied by The Structural Genomics Consortium at the University of North Carolina at Chapel Hill.
In the next data set the test system is endogenous TFE3. Briefly: TFE3 nuclear translocation, immunocytochemistry high-content imaging. The format is cell-based.
The mark [4] stands for this setting: PKIS2 primary screen, DQ Red BSA intensity.
The mark [5] stands for this setting: PKIS2 primary screen, DQ Red BSA spot count.
The mark [6] stands for this setting: PKIS2 primary screening, DQ Red BSA intensity.
Setting [7] is: PKIS2 primary screening, DQ Red BSA spot count.

The values that follow come from paper PMC9851200, “Multiparameter phenotypic screening for endogenous TFEB and TFE3 translocation identifies novel chemical series modulating lysosome function” (Autophagy, 2022).

Like-named read-outs stand apart in the source and are kept apart here.
For DQ Intensity in this document: reference of the scale not given here.
For DQ Spot in this document: reference of the scale not given here.

On to `Nc1nc(N)c2nc(-c3ccccc3)[nH]c2n1` [UNC10225149A], for which, in the data set with endogenous TFEB (PKIS2 primary screening), the TFEB % worked out at 6.49%. Moreover, in the data set with SH-SY5Y cells [1] (PKIS2 primary screening), the AK is 120.42. Besides, the “Nuclear Count” value in the data set with SH-SY5Y cells [2] (PKIS2 primary screening) was determined as 98.36. For the same compound, in the data set with SH-SY5Y cells [3] (PKIS2 primary screening), the “DQ Intensity” value amounted to 89.50 and the “DQ Spot” value is 98.14. Further, in the data set with endogenous TFE3 (PKIS2 primary screening), the TFE3 % worked out at 9.26%.

In the case of `Cc1ccc(NC(=O)c2ccc(Cl)c(Cl)c2)cc1-c1ccc(C(=O)Nc2ccncc2)cc1` [UNC10225151A], the TFEB % in the data set on endogenous TFEB (PKIS2 primary screening) is reported as 6.14%. In addition, the AK in the data set with SH-SY5Y cells [1] (PKIS2 primary screening) is recorded as 125.83. For the same compound, the “Nuclear Count” value with SH-SY5Y cells [2] (PKIS2 primary screening) worked out at 117.17. In the data set on SH-SY5Y cells [3] (PKIS2 primary screening), the “DQ Intensity” value is 92.58 and the “DQ Spot” value is 82.55. The compound further registered a TFE3 % in the data set on endogenous TFE3 (PKIS2 primary screening) of 10.75%.

As to `COc1cc2ncn(-c3cc(OCc4sccc4Cl)c(C(N)=O)s3)c2cc1OC` [UNC10225153A], the TFEB % in the data set on endogenous TFEB (PKIS2 primary screening) is 9.72%. This compound also registered an AK in the data set on SH-SY5Y cells [1] (PKIS2 primary screening) of 134.16. Moreover, the “Nuclear Count” value with SH-SY5Y cells [2] (PKIS2 primary screening) was 49.58. Besides, in the data set with SH-SY5Y cells [3] (PKIS2 primary screening), the “DQ Intensity” value is on record as 186.81 and the “DQ Spot” value was 134.42. The compound also yielded a TFE3 % with endogenous TFE3 (PKIS2 primary screening) of 30.18%.

Consider `CCn1c(-c2ccccn2)nc2cnccc21` [UNC10225156A], for which the TFEB % with endogenous TFEB (PKIS2 primary screening) turned out to be 4.22%. In the data set on SH-SY5Y cells [1] (PKIS2 primary screening), this compound came in with an AK of 96.85. For the same compound, the “Nuclear Count” value in the data set on SH-SY5Y cells [2] (PKIS2 primary screening) is reported as 94.90. In the data set with SH-SY5Y cells [3] (PKIS2 primary screening), the “DQ Intensity” value worked out at 124.07 and the “DQ Spot” value is given as 112.23. In the data set with endogenous TFE3 (PKIS2 primary screening), this compound had a TFE3 % of 11.71%.

Consider `O=c1[nH]cc(-c2ccc(N3CCOCC3)cc2)c2sc(-c3cn[nH]c3)cc12` [UNC10225158A], for which the TFEB % in the data set on endogenous TFEB (PKIS2 primary screen) is listed as 7.60%. The same compound returned an AK with SH-SY5Y cells [1] (PKIS2 primary screen) of 90.80. In addition, the “Nuclear Count” value with SH-SY5Y cells [2] (PKIS2 primary screen) is 78.86. In addition, the “DQ Intensity” value in the data set with SH-SY5Y cells [3] (setting [4]) was 68.86. Moreover, the “DQ Spot” value with SH-SY5Y cells [3] (setting [5]) is 89.34. In addition, the TFE3 % in the data set on endogenous TFE3 (PKIS2 primary screen) came out at 10.30%.

In the data set on endogenous TFEB (PKIS2 primary screening), `Fc1ccc(-c2nc3n(c2-c2ccncc2)CCS3)cc1` [UNC10225163A] gave a TFEB % of 3.29%. In addition, the AK with SH-SY5Y cells [1] (PKIS2 primary screening) stood at 64.81. Also, in the data set on SH-SY5Y cells [2] (PKIS2 primary screening), the “Nuclear Count” value came to 90.62. The “DQ Intensity” value in the data set with SH-SY5Y cells [3] (setting [6]) amounted to 100.39. In addition, the “DQ Spot” value in the data set with SH-SY5Y cells [3] (setting [7]) amounted to 119.65. The same compound registered a TFE3 % in the data set on endogenous TFE3 (PKIS2 primary screening) of 5.95%.

Compound `Cn1cc(-c2ccc3c(c2)CCN3C(=O)Cc2cccc(C(F)(F)F)c2)c2c(N)ncnc21` [UNC10225165A] had a TFEB % in the data set with endogenous TFEB (PKIS2 primary screening) of 6.03%. The compound also showed an AK in the data set with SH-SY5Y cells [1] (PKIS2 primary screening) of 93.68. Further, the “Nuclear Count” value in the data set on SH-SY5Y cells [2] (PKIS2 primary screening) is on record as 103.31. Besides, in the data set on SH-SY5Y cells [3] (PKIS2 primary screening), the “DQ Intensity” value turned out to be 124.78 and the “DQ Spot” value is on record as 91.55. Besides, the TFE3 % with endogenous TFE3 (PKIS2 primary screening) worked out at 14.20%.

In the case of `O=c1[nH]cc(-c2ccc(O)cc2)c2sc(-c3ccncc3)cc12` [UNC10225166A], the TFEB % with endogenous TFEB (PKIS2 primary screen) is 3.69%. The compound further returned an AK in the data set with SH-SY5Y cells [1] (PKIS2 primary screen) of 95.26. Moreover, in the data set with SH-SY5Y cells [2] (PKIS2 primary screen), the “Nuclear Count” value turned out to be 145.07. In addition, in the data set with SH-SY5Y cells [3] (setting [4]), the “DQ Intensity” value is 80.95. Also, the “DQ Spot” value in the data set on SH-SY5Y cells [3] (setting [5]) is reported as 75.27. The compound further came in with a TFE3 % with endogenous TFE3 (PKIS2 primary screen) of 6.08%.

The compound `c1ccc(-c2cc(-c3c[nH]nc3-c3ccccn3)ccn2)cc1` [UNC10225169A] yielded a TFEB % with endogenous TFEB (PKIS2 primary screening) of 2.50%. This compound gave an AK with SH-SY5Y cells [1] (PKIS2 primary screening) of 72.24. In the data set with SH-SY5Y cells [2] (PKIS2 primary screening), the “Nuclear Count” value is recorded as 139.75. The “DQ Intensity” value in the data set with SH-SY5Y cells [3] (setting [6]) turned out to be 83.52. The “DQ Spot” value in the data set with SH-SY5Y cells [3] (setting [7]) is 97.79. In the data set on endogenous TFE3 (PKIS2 primary screening), the TFE3 % is listed as 6.57%.

Take `Cn1cc(-c2ccc3c(c2)CCN3C(=O)Cc2ccccc2Cl)c2c(N)ncnc21` [UNC10225172A]: in the data set on endogenous TFEB (PKIS2 primary screening), the TFEB % stood at 8.22%. This compound also yielded an AK in the data set on SH-SY5Y cells [1] (PKIS2 primary screening) of 106.54. Besides, in the data set on SH-SY5Y cells [2] (PKIS2 primary screening), the “Nuclear Count” value is reported as 63.66. Moreover, in the data set on SH-SY5Y cells [3] (PKIS2 primary screening), the “DQ Intensity” value came out at 88.08 and the “DQ Spot” value came to 66.39. The same compound returned a TFE3 % with endogenous TFE3 (PKIS2 primary screening) of 8.56%.

For the compound `Nc1nccc(-c2c(-c3ccc(F)cc3)ncn2C2CCN(CC(F)(F)F)CC2)n1` [UNC10225173A], in the data set with endogenous TFEB (PKIS2 primary screening), the TFEB % is listed as 11.13%. The same compound returned an AK with SH-SY5Y cells [1] (PKIS2 primary screening) of 117.50. In addition, the “Nuclear Count” value with SH-SY5Y cells [2] (PKIS2 primary screening) is reported as 107.53. For the same compound, in the data set on SH-SY5Y cells [3] (PKIS2 primary screening), the “DQ Intensity” value turned out to be 90.34 and the “DQ Spot” value came to 99.50. In the data set with endogenous TFE3 (PKIS2 primary screening), this compound showed a TFE3 % of 11.80%.

As for `O=C(Nc1cccc(-c2nn3ncccc3c2-c2ccnc(Nc3cccc(C(F)(F)F)c3)n2)c1)c1c(F)cccc1F` [UNC10225174A], the TFEB % in the data set with endogenous TFEB (PKIS2 primary screening) is listed as 2.89%. Also, the AK in the data set on SH-SY5Y cells [1] (PKIS2 primary screening) was 107.72. The “Nuclear Count” value in the data set with SH-SY5Y cells [2] (PKIS2 primary screening) is 93.11. Besides, in the data set on SH-SY5Y cells [3] (PKIS2 primary screening), the “DQ Intensity” value amounted to 102.81 and the “DQ Spot” value was 113.18. The compound also registered a TFE3 % in the data set with endogenous TFE3 (PKIS2 primary screening) of 11.86%.

Consider `Cc1nn2c(=O)cc(N3CCOCC3)nc2n1Cc1cccc(Cl)c1Cl` [UNC10225178A], for which, in the data set on endogenous TFEB (PKIS2 primary screening), the TFEB % is 7.97%. For the same compound, the AK with SH-SY5Y cells [1] (PKIS2 primary screening) is reported as 116.91. The “Nuclear Count” value with SH-SY5Y cells [2] (PKIS2 primary screening) is 93.42. Moreover, in the data set on SH-SY5Y cells [3] (PKIS2 primary screening), the “DQ Intensity” value came to 66.02 and the “DQ Spot” value was 117.74. Moreover, in the data set on endogenous TFE3 (PKIS2 primary screening), the TFE3 % came to 28.29%.
